Experimental data reported in patent US7524834B2, “Sterile powders, formulations, and methods for producing the same” (AstraZeneca AB, priority 1997, dated 2009).

How the values were obtained:
spore suspension = experiment: Decimal reduction time of spores in inoculated glucocorticosteroids at 110° C. (Example 7); settings: for D110 value: Heating at 110° C., spore suspension different from Example 6
Experimental: 1 g of micronized budesonide, prednisolone and beclomethasone dipropionate and 0.5 g of rofleponide were inoculated with a different spore suspension to the one used in Example 6.
The samples were heat treated at 110° C. A sample was withdrawn after various heating times. The number of spores/g were determined by a pour plate technique according to US Pharmacopoeia 23/NF18, 1995, pp. 1681-1686, especially p. 1684.
From the number of spores before and after heat treatment the log reduction of spores and decimal reduction time (time needed at a specified temperature to reduce the number of microorganisms with one log) was calculated.

[1] = tested on: Bacillus subtilis (globigii) spores; experiment: Heat sterilization at 110° C. of powder inoculated with spore suspension (Example 2); settings: for Spore population, After / Spore population, Before: 0.5 g sample; for Spore population, After: after 110° C. for 3 hours and 10 min; for Spore population, Before: before heat treatment; for Spore log reduction: 110° C. for 3 hours and 10 min
Experimental: Samples of 0.5 g of budesonide and of 0.5 g of calcium stearate were each inoculated with 0.1 ml of a Steris Bacillus subtilis (globigii) (Lot#LG126B) spore suspension containing 1.5×10^7 spores. Each sample was subjected to a temperature of 110° C. for 3 hours and 10 min in a Baxter Constant Temperature Oven using the same technique as in Example 1. The spore population of the samples was measured and the results obtained are shown below in Table 2.

E. coli = experiment: Heat resistance of microorganisms inoculated on budesonide powder (Example 3)
Experimental: (§1) Tests were performed to evaluate the heat resistance of various naturally occurring microorganisms.
(§2) Samples of 0.5 g of budesonide powder were each inoculated with approximately 10^2-10^3 viable ATCC microorganisms in 120 ml open-ended polypropylene container. Each sample was subjected to a temperature of 110° C. for 3 hours and 10 min. The microorganism population of the samples was measured before and after heat treatment and the results obtained are shown below in Table 3.

S. epidermidis = experiment: as above
Experimental: as §1, §2

Salmonella typhi = experiment: as above
Experimental: as §1, §2

Ps. Aeruginosa = experiment: as above
Experimental: as §1, §2

C. albicans = experiment: as above
Experimental: as §1, §2

M. luteus = experiment: as above
Experimental: as §1, §2

A. niger = experiment: as above
Experimental: as §1, §2

B. subtilis ATCC 6633 = experiment: as above; settings: for Microorganism population, After: after 110° C. for 3 hours and 10 min; for Microorganism population, Before: before heat treatment
Experimental: as §1, §2

C. sporegenes = experiment: as above
Experimental: as §1, §2

Bacillus subtilis spores = experiment: Spore kill kinetics in inoculated micronized budesonide at 100, 110, 120° C., pour plate (Example 6)
Experimental: 5 g of micronized budesonide was inoculated with approximately 2 ml of a spore suspension of Bacillus subtilis.
The substance and the spore suspension were mixed and dried for approximately 3 hours at 55° C. The inoculated and dried budesonide was mixed with 20-40 g of non-inoculated micronized budesonide.
5 g portions of this sample were heat treated at 100° C., 110° C. or 120° C. in a Heraeus ST 5060 heating apparatus. A 1 g sample was withdrawn after various heating times at the respective heating temperatures. Each such 1 g sample was transferred to 10 ml of dilution medium pH 7.2. Appropriate dilutions were made in 0.1% Peptone Aqueous solution and the number of spores/g were determined by a pour plate technique according to US Pharmacopoeia 23/NF18, 1995, pp. 1681-1686, especially p. 1684.
The number of spores before heat treatment were determined in samples heated at 80° C. for 10 min in order to kill the vegetative cells.
The results are shown in Table 6. where the DT value is the amount of time in minutes required to obtain a log 1 reduction in the number of spores before and after heat treatment at the temperature T (in ° C.).

[2] = after 110° C. for 3 hours and 10 min
[3] = B. subtilis ATCC 6633, low inoculum
[4] = 100° C. series, before heat treatment (80° C. 10 min)
[5] = 110° C. series, before heat treatment (80° C. 10 min)
[6] = 120° C. series, before heat treatment (80° C. 10 min)

C[C@]12C=CC(=O)C=C1CC[C@@H]1[C@@H]2[C@@H](O)C[C@@]2(C)[C@H]1CC[C@]2(O)C(=O)CO [Prednisolone, prednisolone]
D110 value (spore suspension): 73.8 min

CCCC1O[C@@H]2C[C@H]3[C@@H]4CCC5=CC(=O)C=C[C@]5(C)[C@H]4[C@@H](O)C[C@]3(C)[C@]2(C(=O)CO)O1 (stereo partly shown) [Budesonide, budesonide]
Spore population, After [1]: <10 spores
Spore population, Before [1]: 1.5 × 10^7 spores
Spore log reduction [1]: greater than 6.2
D110 value (spore suspension): 41 min
Microorganism population, After (E. coli; [2]): 0
Microorganism population, Before (E. coli; before heat treatment): 450
Microorganism population, After (S. epidermidis; [2]): 0
Microorganism population, Before (S. epidermidis; before heat treatment): 240
Microorganism population, After (Salmonella typhi; [2]): 0
Microorganism population, Before (Salmonella typhi; before heat treatment): 270
Microorganism population, After (Ps. Aeruginosa; [2]): 0
Microorganism population, Before (Ps. Aeruginosa; before heat treatment): 350
Microorganism population, After (C. albicans; [2]): 0
Microorganism population, Before (C. albicans; before heat treatment): 780
Microorganism population, After (M. luteus; [2]): 0
Microorganism population, Before (M. luteus; before heat treatment): 300
Microorganism population, After (A. niger; [2]): 0
Microorganism population, Before (A. niger; before heat treatment): 260
Microorganism population, After (B. subtilis ATCC 6633; B. subtilis ATCC 6633, high inoculum, singular bacillus species in 10^0 dilution plate): 1^1
Microorganism population, Before (B. subtilis ATCC 6633; B. subtilis ATCC 6633, high inoculum): 1.2 × 10^5
Microorganism population, After (B. subtilis ATCC 6633; [3]): 0
Microorganism population, Before (B. subtilis ATCC 6633; [3]): 300
Microorganism population, After (C. sporegenes; [2]): 0
Microorganism population, Before (C. sporegenes; before heat treatment): 160
D100 (time for log 1 reduction in number of spores) (Bacillus subtilis spores; 100° C.): D100 = 41.5 min; correlation coefficient = −0.0996 This means that it takes 6 × 41.5 minutes to obtain a log 6 reduction in the number of spores at a temperature of 100 °C
log spores/g (Bacillus subtilis spores; [4]): 6.81
spores/g (Bacillus subtilis spores; [4]): 6.5 × 10^6 spores/g
log spores/g (Bacillus subtilis spores; 100° C., 15 min): 3.68
spores/g (Bacillus subtilis spores; 100° C., 15 min): 4.8 × 10^3 spores/g
log spores/g (Bacillus subtilis spores; 100° C., 45 min): 2.85
spores/g (Bacillus subtilis spores; 100° C., 45 min): 7.1 × 10^2 spores/g
log spores/g (Bacillus subtilis spores; 100° C., 75 min): 2.23
spores/g (Bacillus subtilis spores; 100° C., 75 min): 1.7 × 10^2 spores/g
D110 (time for log 1 reduction in number of spores) (Bacillus subtilis spores; 110° C.): D110 = 8.3 min; correlation coefficient = −0.995 This means that it takes 6 × 8.3 minutes to obtain a log 6 reduction in the number of spores at a temperature of 110 °C
log spores/g (Bacillus subtilis spores; [5]): 6.20
spores/g (Bacillus subtilis spores; [5]): 2 × 10^6 spores/g
log spores/g (Bacillus subtilis spores; 110° C., 5 min): 4.32
spores/g (Bacillus subtilis spores; 110° C., 5 min): 2.08 × 10^4 spores/g
log spores/g (Bacillus subtilis spores; 110° C., 15 min): 2.97
spores/g (Bacillus subtilis spores; 110° C., 15 min): 9.25 × 10^2 spores/g
log spores/g (Bacillus subtilis spores; 110° C., 20 min): 2.55
spores/g (Bacillus subtilis spores; 110° C., 20 min): 3.55 × 10^2 spores/g
D120 (time for log 1 reduction in number of spores) (Bacillus subtilis spores; 120° C.): D120 = 4.1 min; correlation coefficient = −0.998 This means that it takes 6 × 4.1 minutes to obtain a log reduction in the number of spores at a temperature of 120 °C
log spores/g (Bacillus subtilis spores; [6]): 6.19
spores/g (Bacillus subtilis spores; [6]): 1.5 × 10^6 spores/g
log spores/g (Bacillus subtilis spores; 120° C., 4 min): 2.28
spores/g (Bacillus subtilis spores; 120° C., 4 min): 1.9 × 10^2 spores/g
log spores/g (Bacillus subtilis spores; 120° C., 6 min): 1.74
spores/g (Bacillus subtilis spores; 120° C., 6 min): 5.5 × 10^1 spores/g
log spores/g (Bacillus subtilis spores; 120° C., 8 min): 1.30
spores/g (Bacillus subtilis spores; 120° C., 8 min): 2 × 10^1 spores/g

calcium stearate
Spore population, After [1]: 3.3 × 10^6 spores
Spore population, Before [1]: 1.5 × 10^7 spores
Spore log reduction [1]: less than 0.7

CCC[C@@H]1O[C@@H]2C[C@H]3[C@@H]4C[C@H](F)C5=CC(=O)CC[C@]5(C)[C@@]4(F)[C@@H](O)C[C@]3(C)[C@]2(C(=O)CO)O1 [Rofleponide, rofleponide]
D110 value (spore suspension): 9.8 min
Spore kill (spore suspension; full 1.0 g sample, cycle times ≧5 minutes at 110° C., D110 could not be calculated): total kill

CCC(=O)OCC(=O)[C@@]1(OC(=O)CC)[C@@H](C)C[C@H]2[C@@H]3CCC4=CC(=O)C=C[C@]4(C)[C@@]3(Cl)[C@@H](O)C[C@@]21C [Beclomethasone dipropionate, beclomethasone dipropionate]
D110 value (spore suspension): 72.7 min
